{"source": "patent US4486437A", "about": "“Phthalidyl apovincaminate with cerebral eubolic activity” (Ausonia Farmaceutici s.r.l., priority 1982, dated 1984)", "key": {"[1]": {"assay": "Pharmacokinetics in vivo after oral administration of tritium-labelled AP 698", "conditions": "rat; for presence in the plasma: after oral AP 698", "from_the_text": "(§1) The pharmacokinetics of enzyme hydrolysis has been studied both in vitro and in vivo in the rat after oral administration of AP 698 labelled with tritium."}, "[2]": {"tested_on": "hypobaric hypoxia in the mouse", "assay": "Changes in mortality caused by hypobaric hypoxia (survival time)", "assay_type": "in vivo", "conditions": "for Survival time (mean values ± standard error): 190 mmHg, controls 72,5 ± 3,5", "experimental": "The experiments were conducted on mice confined in cages in which the pressure was reduced to a level (190 mmHg) which caused the death of the animals.\nAfter determining the survival time of the controls, the effects of various dosage levels of AP 698 were studied."}, "isolated rabbit ileum": {"tested_on": "isolated rabbit ileum", "assay": "Effect on the smooth musculature, isolated rabbit ileum"}, "[3]": {"assay": "Acute toxicity, single administration (LD50, Litchfield and Wilcoxon method)", "conditions": "in vivo, rat, read-out: LD50 (95% confidence limit)", "from_the_text": "The toxicity of single administrations of AP 698 has been studied in the rat, treating the animals by the oral and intraperitoneal routes with various dosage levels of AP 698.\nThe LD50 values, determined by the Litchfield and Wilcoxon method (J. Pharmacol. Exp. Therap., 1949, 96, 99) are given in Table 1."}, "[4]": {"tested_on": "cerebral electrical activity in the waking rabbit", "assay": "Effect on deterioration of electrogenesis by cerebral ischaemia (EEG)", "assay_type": "in vivo"}, "[5]": {"assay": "Enzyme hydrolysis in vitro, incubation with rat plasma", "assay_type": "in vitro ADME", "conditions": "apovincaminic acid formed measured by gas chromatography", "from_the_text": "as §1"}, "[6]": {"conditions": "16 mg/kg i.v., N.S. (MannWhitney)"}, "[7]": {"conditions": "25,6 mg/kg i.v., significance 0.01 (MannWhitney)"}, "[8]": {"conditions": "41,0 mg/kg i.v., significance 0.01 (MannWhitney)"}, "[9]": {"conditions": "post-ischaemic phase, contrary to controls"}, "[10]": {"conditions": "treated animals vs controls, i.v."}}, "note": "Read-outs that look alike come from different tables or passages of the source.", "data": [{"smiles": "CCC12C=C(C(=O)O)n3c4c(c5ccccc53)CCN(CCC1)C42", "note": "(stereo not drawn) [apovincaminic acid]", "values": [{"measurement": "levels of apovincaminic acid following the administration of AP 698", "setting": "[1]", "result": "persistent levels"}, {"measurement": "presence in the plasma", "setting": "[1]", "result": "both unchanged AP 698 and apovincaminic acid in the plasma"}]}, {"smiles": "CCC12C=C(C(=O)OC3OC(=O)c4ccccc43)n3c4c(c5ccccc53)CCN(CCC1)C42", "note": "(stereo not drawn) [AP 698, 13a-ethyl-2,3,5,6,13a,13b-hexahydro-1H-indolo(3,2,1-de)pyrido(3,2,1-ij)(1,5)naphthyridin-12-phthalidyl carboxylate]", "values": [{"measurement": "Survival time (mean values ± standard error)", "setting": "[2]; [6]", "result": "67,5 ± 2,5 sec."}, {"measurement": "Variation (survival time)", "setting": "[2]; [6]", "result": "-6,9%"}, {"measurement": "Survival time (mean values ± standard error)", "setting": "[2]; [7]", "result": "116,3 ± 13,5 sec."}, {"measurement": "Variation (survival time)", "setting": "[2]; [7]", "result": "+60,4%"}, {"measurement": "Survival time (mean values ± standard error)", "setting": "[2]; [8]", "result": "157,9 ± 33,2 sec."}, {"measurement": "Variation (survival time)", "setting": "[2]; [8]", "result": "+117,8%"}, {"measurement": "survival time, protective effect on induced hypobaric hypoxia (in words)", "setting": "[2]; mouse, various dosage levels", "result": "highly significant extension of the survival time with a substantial protective effect"}, {"measurement": "presence in the plasma", "setting": "[1]", "result": "both unchanged AP 698 and apovincaminic acid in the plasma"}, {"measurement": "half-life", "setting": "[1]; oral, plasma, read-out: half-life of unchanged AP 698", "result": 72, "unit": "min"}, {"measurement": "myorelaxant activity", "setting": "isolated rabbit ileum; isolated rabbit ileum, compared with vincamine under the same conditions", "result": "considerable myorelaxant activity, decidedly higher than that displayed by vincamine"}, {"measurement": "effect on the tonus and amplitude of the contractions, compared with vincamine", "setting": "isolated rabbit ileum; musculature in basal conditions and made hypertonic with sodium or serotonin", "result": "greater effect"}, {"measurement": "LD50", "setting": "[3]; ip, i.p.", "result": 684, "unit": "mg/kg"}, {"measurement": "LD50", "setting": "[3]; po, p.o.", "result": "> 3000", "unit": "mg/kg"}, {"measurement": "minimal effective dose", "setting": "[4]; Oryctolagus cuniculus, intravenous at the end of the ischaemic manoeuvre, dose-dependent, read-out: lowest dose with evident therapeutic effect", "result": 0.5, "unit": "mg/kg"}, {"measurement": "amplitude of the theta rhythm", "setting": "[4]; between the 10th and 20th minutes, contrary to controls", "result": "not reduced"}, {"measurement": "(theta+beta)/(delta+alpha) ratios", "setting": "[4]; between the 14th and the 25th minutes, vs controls", "result": "decrease less than in the controls"}, {"measurement": "frequency of the theta rhythm", "setting": "[4]; [9]", "result": "not increased"}, {"measurement": "relative representation times (theta rhythm)", "setting": "[4]; [9]", "result": "not dispersed"}, {"measurement": "beta rhythm", "setting": "[4]; post-ischaemic phase, vs controls", "result": "less reduced than in the controls"}, {"measurement": "recovery of the EEG and of the cortical reactivity to stimulation", "setting": "[4]; [10]", "result": "quicker recovery"}, {"measurement": "return to a trace comparable to that recorded before the ischaemic manoeuvre", "setting": "[4]; [10]", "result": "return in a shorter time"}, {"measurement": "half-life", "setting": "[5]", "result": 7.3, "unit": "min"}]}]}
